Experimental data as given in patent US9034918B2, “Composition including at least one trans-cinnamaldehyde and the use thereof in the treatment of bacterial infections, specifically in the treatment of nosocomial infections” (SEPTEOS, priority 2009, dated 2015).

Tests used:
Assay in all cases: Antibiogram by diffusion technique (CA-SFM 2008)
Type in all cases: cell-based
E. coli strain 9003 = system: E. coli strain 9003
Text: (§1) Three clinical categories were selected for interpretation of the in vitro sensitivity tests: sensitive (S), resistant (R) and intermediate (I). • The strains categorized S are those for which the probability of therapeutic success is high in the case of treatment by systemic route with the dosing schedule recommended in the summary of product characteristics (SPC) prepared by the French Health Products Safety Agency (AFSSAPS). • The strains categorized R are those for which there is a high probability of therapeutic failure regardless of treatment type and antibiotic dose. • The strains categorized I are those for which therapeutic success cannot be predicted. These strains form a heterogeneous group for which the results obtained in vitro are not predictive of therapeutic success. […] The intermediate category is also a buffer zone which takes into account technical and biological uncertainties.
(§2) The sensitivity of strains to antibiotics was determined by a diffusion technique according to the 2008 recommendations by the Antibiogram Committee of the French Microbiology Society (CA-SFM).
(§3) In terms of critical concentrations and diameters, strains are categorized as follows: • sensitive (S): strains for which the MIC of the antibiotic tested is less than or equal to the lower critical concentration c, which is equivalent to a diameter greater than or equal to the critical diameter D; • resistant (R): strains for which the MIC of the antibiotic tested are greater than the upper critical concentration C, corresponding to a diameter less than the critical diameter d; • intermediate sensitivity (I): strains for which the MIC of the antibiotic tested and the corresponding diameter are between the two critical concentrations and the two critical diameters.
(§4) The tests were carried out on Mueller-Hinton agar. An inoculum adjusted to 0.5 on the McFarland scale is then diluted to 1/100. Petri dishes are inoculated by swabbing. The dishes are read after 24 hours of incubation at 37° C.
(§5) The raw results are then interpreted according to the interpretative reading rules of the CA-SFM.

[1] = system: Enterobacter aerogenes (9004); details: strain 9004
Text: as §1, §2, §3, §4, §5

E. coli ATCC 25922 = system: E. coli ATCC 25922; design: Diameter (D): unit not given here
Text: Three clinical categories were selected for interpretation of the in vitro sensitivity tests: sensitive (S), resistant (R) and intermediate (I). • The strains categorized S are those for which the probability of therapeutic success is high in the case of treatment by systemic route with the dosing schedule recommended in the summary of product characteristics (SPC) prepared by the French Health Products Safety Agency ([…]). • The strains categorized R are those for which there is a high probability of therapeutic failure regardless of treatment type and antibiotic dose. • The strains categorized I are those for which therapeutic success cannot be predicted. These strains form a heterogeneous group for which the results obtained in vitro are not predictive of therapeutic success. […] The intermediate category is also a buffer zone which takes into account technical and biological uncertainties. The sensitivity of strains to antibiotics was determined by a diffusion technique according to the 2008 recommendations by the Antibiogram Committee of the French Microbiology Society (CA-SFM). In terms of critical concentrations and diameters, strains are categorized as follows: • sensitive (S): strains for which the MIC of the antibiotic tested is less than or equal to the lower critical concentration c, which is equivalent to a diameter greater than or equal to the critical diameter D; • resistant (R): strains for which the MIC of the antibiotic tested are greater than the upper critical concentration C, corresponding to a diameter less than the critical diameter d; • intermediate sensitivity (I): strains for which the MIC of the antibiotic tested and the corresponding diameter are between the two critical concentrations and the two critical diameters. The tests were carried out on Mueller-Hinton agar. An inoculum adjusted to 0.5 on the McFarland scale is then diluted to 1/100. Petri dishes are inoculated by swabbing. The dishes are read after 24 hours of incubation at 37° C. The raw results are then interpreted according to the interpretative reading rules of the CA-SFM. Two examples: all strains of methicillin-resistant Staphylococcus are resistant to all beta-lactams, and the same is true for gentamicin-resistant strains; golden staph is necessarily resistant to kanamycin (and amikacin) and tobramycin. The quality of the diffusion method is controlled using E. coli strain ATCC 25922.

E. coli strain 8154 = system: E. coli strain 8154; design: D: unit not given here
Text: as §1, §2, §3, §4, §5

E. coli strain 8155 = system: E. coli strain 8155; design: D: unit not given here
Text: as §1, §2, §3, §4, §5

E. coli strain 8156 = system: E. coli strain 8156; design: D: unit not given here
Text: as §1, §2, §3, §4, §5

E. coli strain 8157 = system: E. coli strain 8157; design: D: unit not given here
Text: as §1, §2, §3, §4, §5

[2] = system: Pseudomonas aeruginosa strain 8128; design: D: unit not given here
Text: as §1, §2, §3, §4, §5

[3] = system: Pseudomonas aeruginosa strain 8129; design: D: unit not given here
Text: as §1, §2, §3, §4, §5

[4] = system: Pseudomonas aeruginosa strain 8132; design: D: unit not given here
Text: as §1, §2, §3, §4, §5

[5] = system: Pseudomonas aeruginosa strain 8134; design: D: unit not given here
Text: as §1, §2, §3, §4, §5

[6] = system: strain 9007, Pseudomonas aeruginosa, with VIM-2 carbapenemase
Text: as §1, §2, §3, §4, §5

[7] = system: strain 9010, Acinetobacter baumannii, with VEB-1 ESBL
Text: as §1, §2, §3, §4, §5

Enterococcus strain 8152 = system: Enterococcus strain 8152; design: Diameter: unit not given here
Text: as §1, §2, §3, §4, §5

Enterococcus strain 8153 = system: Enterococcus strain 8153; design: Diameter: unit not given here
Text: as §1, §2, §3, §4, §5

[8] = system: golden staph (S. aureus) strain 8147; design: D: unit not given here
Text: as §1, §2, §3, §4, §5

[9] = system: golden staph (S. aureus) strain 8239; design: D: unit not given here
Text: as §1, §2, §3, §4, §5

[10] = system: golden staph (S. aureus) strain 8240; design: D: unit not given here
Text: as §1, §2, §3, §4, §5

| Compound | Category (E. coli strain 9003) | Category [1] | Category (Cat.) (E. coli ATCC 25922) | Diameter (D) (E. coli ATCC 25922) | Cat. (E. coli strain 8154) | D (E. coli strain 8154) | Cat. (E. coli strain 8155) | D (E. coli strain 8155) | Cat. (E. coli strain 8156) | D (E. coli strain 8156) | Cat. (E. coli strain 8157) | D (E. coli strain 8157) | Cat. [2] | D [2] | Cat. [3] | D [3] | Cat. [4] | Cat. [5] | Category [6] | Category [7] | also measured |
| --- | --- | --- | --- | --- | --- | --- | --- | --- | --- | --- | --- | --- | --- | --- | --- | --- | --- | --- | --- | --- | --- |
| NCC[C@H](O)C(=O)N[C@@H]1C[C@H](N)[C@@H](O[C@H]2O[C@H](CN)[C@@H](O)[C@H](O)[C@H]2O)[C@H](O)[C@H]1O[C@H]1O[C@H](CO)[C@@H](O)[C@H](N)[C@H]1O [Amikacin] | S | I |  |  |  |  |  |  |  |  |  |  |  |  |  |  |  |  |  |  |  |
| CC(C)(O/N=C(\C(=O)N[C@@H]1C(=O)N2C(C(=O)[O-])=C(C[n+]3ccccc3)CS[C@H]12)c1csc(N)n1)C(=O)O [Ceftazidime] | R | R | S | 25 | S | 30 | S | 30 | S | 33 | S | 30 | S | 25 | R | 0 | S | S | S | R | D [4]: 26; D [5]: 25 |
| Colimycin | S | S |  |  |  |  |  |  |  |  |  |  |  |  |  |  |  |  |  |  |  |
| CO/N=C(\C(=O)N[C@@H]1C(=O)N2C(C(=O)O)=C(COC(C)=O)CS[C@H]12)c1csc(N)n1 [Cefotaxime] | R | R |  |  |  |  |  |  |  |  |  |  |  |  |  |  |  |  |  |  |  |
| Bactrim | S | R |  |  |  |  |  |  |  |  |  |  |  |  |  |  |  |  |  |  |  |
| CO[C@@]1(NC(=O)Cc2cccs2)C(=O)N2C(C(=O)O)=C(COC(N)=O)CS[C@@H]21 [Cefoxitin] |  |  | S | 24 | S | 26 | S | 25 | S | 26 | S | 30 | R | 0 | R | 0 | R | R | R | R | D [4]: 0; D [5]: 0; Category (Enterococcus strain 8152): R; Diameter (Enterococcus strain 8152): 0; Category (Enterococcus strain 8153): S; Diameter (Enterococcus strain 8153): 25 |
| CCn1cc(C(=O)O)c(=O)c2ccc(C)nc21 [Nalidixic acid] |  |  | S | 28 | S | 24 | S | 28 | S | 27 | R | 0 | R | 0 | R | 0 | R | R | R | R | D [4]: 0; D [5]: 0 |
| CO/N=C(\C(=O)N[C@@H]1C(=O)N2C(C(=O)[O-])=C(C[N+]3(C)CCCC3)CS[C@H]12)c1csc(N)n1 [Cefepime] | R | R | S | 25 | S |  | S |  | S |  | S |  | S |  | S |  | S | S | S | R |  |
| CC(=O)OCC1=C(C(=O)O)N2C(=O)[C@@H](NC(=O)Cc3cccs3)[C@H]2SC1 [Cefalotin] | R | R | S | 20 | S | 21 | S | 21 | S | 20 | S | 19 | R | 0 | R | 0 | R | R | R | R | D [4]: 0; D [5]: 0; Cat. [8]: R; D [8]: 17; Cat. [9]: R; D [9]: 17; Cat. [10]: R; D [10]: 17 |
| Pristinamycin |  |  |  |  |  |  |  |  |  |  |  |  |  |  |  |  |  |  |  |  | Cat. [8]: S; D [8]: 29; Cat. [9]: S; D [9]: 32; Cat. [10]: S; D [10]: 27; Category (Enterococcus strain 8152): S; Diameter (Enterococcus strain 8152): 23; Category (Enterococcus strain 8153): S; Diameter (Enterococcus strain 8153): 22 |
| CC1(C)S[C@@H]2[C@H](NC(=O)[C@H](C(=O)O)c3ccsc3)C(=O)N2[C@H]1C(=O)O [Ticarcillin] | R | R | S | 25 | R | 0 | S | 31 | S | 28 | R | 0 | I | 21 | R | 13 | R | S | R | R | D [4]: 12; D [5]: 23 |
| C[C@@H](O)[C@H]1C(=O)N2C(C(=O)O)=C(S[C@@H]3CN[C@H](C(=O)Nc4cccc(C(=O)O)c4)C3)[C@H](C)[C@H]12 [Eratpenem] | S | S |  |  |  |  |  |  |  |  |  |  |  |  |  |  |  |  |  |  |  |
| C[C@@H](O)[C@H]1C(=O)N2C(C(=O)O)=C(SCCN=CN)C[C@H]12 [Imipenem] | S | S | S | 34 | S | 33 | S | 34 | S | 34 | I | 20 | I | 18 | S | 36 | R | S | R | S | D [4]: 13; D [5]: 26 |
| CCn1cc(C(=O)O)c(=O)c2cc(F)c(N3CCNCC3)cc21 [Noroxin] | R | R |  |  |  |  |  |  |  |  |  |  |  |  |  |  |  |  |  |  |  |
